We go through 77 molecules from patent US20230067929A1, “HETEROCYCLIC DERIVATIVES, PHARMACEUTICAL COMPOSITIONS AND THEIR USE IN THE TREATMENT, AMELIORATION OR PREVENTION OF CANCER” (Tolremo Therapeutics AG, priority 2018, published 2023).

The assay has as its system A375 cells. Briefly: A375 cell immunofluorescence assay (with 1 μM S1152 and 0.5 μM S1008), EC50. The class given is cell-based. The conditions noted are these: 1 μM S1152 + 0.5 μM S1008, one day, ratio FL2/FL3 staining (sc-365823 antibody). As to the method: One thousand four hundred A375 cells were seeded in each well of a 384 well microplate. One day later they were treated with 1 μM S1152 (Selleckchem) in dimethyl sulfoxide, 0.5 μM S1008 (Selleckchem) and dose ranges of invention compounds for one day in Dulbecco's Modified Eagle's Medium supplemented with 10% fetal calf serum and 2 mM (2S)-2-amino-4-carbamoylbutanoic acid. Wells were incubated with 4% polyoxymethylene (Sigma Aldrich 158127) at ambient temperature. After ten minutes, polyoxymethylene was replaced with phosphate-buffered saline. After one minute phosphate-buffered saline was replaced with 0.2% polyethylene glycol octylphenyl ether in phosphate-buffered saline. After ten minutes at ambient temperature 0.2% polyethylene glycol octylphenyl ether in phosphate-buffered saline was replaced with 1% aminoethanoic acid in phosphate-buffered saline. […] After one hour at 37° C., the solution was replaced with phosphate-buffered saline twice. Phosphate-buffered saline was replaced with 2 μg/ml A-11029 (Invitrogen) in 0.05% polyoxyethylene (20) sorbitan monolaurate in phosphate-buffered saline. […] After one hour at ambient temperature in the dark, signal in wells was measured with a Acumen Cellista. 3,8-Diamino-5-[3-(diethylmethylammonio)propyl]-6-phenylphenanthridinium diiodide-positive objects were defined in FL3 (565-600 nm) with a perimeter between 50-800 μm and a total intensity of 10000-1000000 FLU. Signal in FL2 (500-530 nm) was measured in defined objects. A normalized ratio of total ln FL2 over total ln FL3 staining was log transformed. A non-linear regression (variable slope, 4 parameters) was used to calculate EC50 values using GraphPad Prism (Version 7.0d).
As usually defined, the EC50 is the midpoint of the concentration-response curve. Regarding `CCC(=O)N1CCCC(c2nc(Nc3cccc(F)c3)cc(-c3cnc(NC)nc3)n2)C1` (centres unmarked), the EC50 was greater than 10 µM.

Turning to `CCC(=O)N1CCCC(c2nc(Nc3cccc(Cl)c3)cc(-c3cccnc3)n2)C1` (centres unmarked), the EC50 lay in the range of 1 to 10 µM. For `COc1cncc(-c2cc(Nc3cccc(Cl)c3)nc(C3CCCN(C(C)=O)C3)n2)c1` (centres unmarked) the value was less than 1 µM; for `CCC(=O)N1CCCC(c2nc(Nc3ccc(C)cc3)cc(-c3cccnc3)n2)C1` (centres unmarked), 1 to 10 µM; for `CC(=O)N1CCCC(c2nc(Nc3cccnc3)cc(Nc3cccc(F)c3)n2)C1` (centres unmarked), 1 to 10 µM. In the case of `CC(=O)N1CCCC(c2nc(Nc3cccc(F)c3)cc(-c3ccnnc3)n2)C1` (centres unmarked), the 50% effective concentration (EC50) was 1 to 10 µM. The result for `CCC(=O)N1CCCC(c2nc(Nc3ccc(F)cc3)cc(-c3cccnc3)n2)C1` (centres unmarked) reads greater than 10 µM. For `CC(=O)N1CCCC(c2nc(NC34CC(C3)C4)cc(-c3cccnc3)n2)C1` (centres unmarked) the value was greater than 10 µM. For `CCC(=O)N1CCCC(c2nc(NC3CCCCC3)cc(-c3cccnc3)n2)C1` (centres unmarked) the value was greater than 10 µM; for `CC(=O)Nc1ccc(-c2cc(Nc3cccc(F)c3)nc(C3CCCN(C(C)=O)C3)n2)cn1` (centres unmarked), 1 to 10 µM. For `CCc1cccc(Nc2cc(-c3cncc(OC)c3)nc(C3CCCN(C(C)=O)C3)n2)c1` (centres unmarked), the concentration giving a half-maximal response (EC50) fell in the range of 1 to 10 µM. For `CC(=O)N1CCCC(c2nc(Nc3cncc(C)c3)cc(-c3cncc4[nH]ccc34)n2)C1` (centres unmarked) the value was 1 to 10 µM; for `CCC(=O)N1CCCC(c2nc(Nc3cccc(C)c3)cc(-c3cccnc3)n2)C1` (centres unmarked), 1 to 10 µM.

For the molecule `CC(=O)N1CCCC(c2nc(Nc3cccc(F)c3)cc(-c3ccoc3)n2)C1` (centres unmarked), the EC50 is 1 to 10 µM. Turning to `CCC(=O)N1CCCC(c2nc(Nc3cccc(F)c3)cc(-c3ccccc3C(=O)NC)n2)C1` (centres unmarked), the concentration giving a half-maximal response (EC50) was greater than 10 µM. For the molecule `CCC(=O)N1CCCC(c2nc(Nc3cccc(F)c3)cc(-c3ccccc3OC(F)(F)F)n2)C1` (centres unmarked), the EC50 was greater than 10 µM. For `[2H]C([2H])([2H])C(=O)N1CCCC(c2nc(Nc3cccc(F)c3)cc(-c3cccnc3)n2)C1` (centres unmarked) the value was less than 1 µM; for `CC(=O)N1CCCC(c2cc(Nc3cccc(F)c3)nc(-c3cccnc3)n2)C1` (centres unmarked), 1 to 10 µM. For `CCC(=O)N1CCCC(c2nc(Nc3cccc(F)c3)cc(-c3ccc(C(=O)NC)cc3)n2)C1` (centres unmarked) the value was 1 to 10 µM; for `CC(=O)N1CCCC(c2nc(NC3CCCCC3)cc(-c3cccnc3)n2)C1` (centres unmarked), greater than 10 µM.

Turning to `CCC(=O)N1CCCC(c2nc(Cl)cc(Nc3cccc(F)c3)n2)C1` (centres unmarked), the EC50 was greater than 10 µM. The result for `COc1csc(-c2cc(Nc3cccc(F)c3)cc(C3CCCN(C(C)=O)C3)n2)c1` (centres unmarked) reads 1 to 10 µM; that for `CCC(=O)N1CCCC(c2nc(Nc3cccc(F)c3)cc(-c3ccc4ocnc4c3)n2)C1` (centres unmarked), greater than 10 µM; that for `CC(=O)N1CCCC(c2nc(Nc3cncc(C)n3)cc(-c3cccnc3)n2)C1` (centres unmarked), 1 to 10 µM.

Regarding `CC(=O)N1CCCC(c2nc(Nc3cccc(F)c3)cc(-c3ncc(C)o3)n2)C1` (centres unmarked), the concentration for a half-maximal effect (EC50) is greater than 10 µM. The result for `CC(=O)N1CCCC(c2nc(Nc3ccccc3)cc(-c3cncnc3)n2)C1` (centres unmarked) reads 1 to 10 µM; that for `CC(=O)N1CCCC(c2nc(Nc3cccc(F)c3)cc(-c3cncc(C(=O)O)c3)n2)C1` (centres unmarked), greater than 10 µM.

`CN1CCOC(c2nc(Nc3cccc(F)c3)cc(-c3cccnc3)n2)C1` (centres unmarked): the half-maximal effective concentration (EC50) was greater than 10 µM.

For the molecule `CCC(=O)N1CCCC(c2nc(Cl)cc(Oc3cccc(F)c3)n2)C1` (centres unmarked), the EC50 was greater than 10 µM. For `CC(=O)N1CCCC(c2nc(Nc3cccc(F)c3)cc(-c3cncc(C(F)(F)F)c3)n2)C1` (centres unmarked) the value was greater than 10 µM; for `COc1cncc(-c2cc(Nc3cccc(-n4cnnc4)c3)nc(C3CCCN(C(C)=O)C3)n2)c1` (centres unmarked), greater than 10 µM. The result for `CCC(=O)N1CCCC(c2nc(Nc3cccc(F)c3)cc(-c3cccc(OC(F)F)c3)n2)C1` (centres unmarked) reads greater than 10 µM.

For `CC(=O)N1CCCC(c2nc(Nc3ccccc3)cc(-c3cccnc3)n2)C1` (centres unmarked), the half-maximal effective concentration (EC50) was 1 to 10 µM.

Regarding `CCC(=O)N1CCCC(c2nc(Nc3cccc(F)c3)cc(-c3ccc(N(C)C)nc3)n2)C1` (centres unmarked), the EC50 was greater than 10 µM. For `CCC(=O)N1CCCC(c2nc(Nc3cccc(F)c3)cc(-c3cncc(OC)c3)n2)C1` (centres unmarked) the value was 1 to 10 µM; for `CC(=O)N1CCC(C)C(c2nc(Nc3cccc(F)c3)cc(-c3cccnc3)n2)C1` (centres unmarked) [drawing 720], 1 to 10 µM. As for `CC(=O)N1CCOC(c2nc(Nc3cccc(F)c3)cc(-c3cccnc3)n2)C1` (centres unmarked), the EC50 is greater than 10 µM. For `CC(=O)N1CC(c2nc(Nc3cccc(F)c3)cc(-c3cccnc3)n2)CCC1(C)C` (centres unmarked), the 50% effective concentration (EC50) was greater than 10 µM. For `CCC(=O)N1CCCC(c2nc(Nc3cccc(F)c3)cc(-c3ccc(C(F)(F)F)nc3)n2)C1` (centres unmarked) the value was 1 to 10 µM; for `CCC(=O)N1CCCC(c2nc(Nc3cccc(F)c3)cc(NC3CC3)n2)C1` (centres unmarked), greater than 10 µM. For the molecule `CC(=O)N1CCCC(c2nc(Nc3cccc(F)c3)cc(-c3cncc4nc(C)oc34)n2)C1` (centres unmarked), the EC50 was less than 1 µM. For `CC(=O)NCCOCCOCCNC(=O)c1ccc(-c2cc(Nc3cccc(F)c3)nc(C3CCCN(C(C)=O)C3)n2)cc1` (centres unmarked) the value was greater than 10 µM; for `CCC(=O)N1CCCC(c2nc(NC3CCCC3)cc(-c3cccnc3)n2)C1` (centres unmarked), greater than 10 µM. For `Fc1cccc(Nc2cc(-c3cccnc3)nc(C3CCCN(CC(F)(F)F)C3)n2)c1` (centres unmarked) the value was greater than 10 µM; for `CNC(=O)c1ccc(-c2cc(Nc3cccc(F)c3)nc(C3CCCN(C(C)=O)C3)n2)cc1` (centres unmarked), 1 to 10 µM; for `CCC(=O)N1CCCC(c2nc(Nc3cccc(F)c3)cc(-c3ccccc3OC)n2)C1` (centres unmarked), greater than 10 µM. The result for `CC(=O)N1CCCC(c2nc(Nc3cccc(F)c3)cc(-c3ccc(N4C[C@@H]5C[C@H]4CO5)nc3)n2)C1` (some centres unmarked) reads 1 to 10 µM. With `CC(=O)N1CCCC(c2nc(Nc3cccc(F)c3)cc(-c3cncc(-c4nccs4)c3)n2)C1` (centres unmarked), the concentration for a half-maximal effect (EC50) is less than 1 µM. Consider `CC(=O)N1CCCC(c2nc(Nc3cc(F)cc(F)c3)cc(-c3cccnc3)n2)C1` (centres unmarked), for which the 50% effective concentration (EC50) is less than 1 µM.

With `CCC(=O)N1CCCC(c2nc(Nc3cccc(F)c3)cc(-c3ccc(OC)nc3)n2)C1` (centres unmarked), the concentration for a half-maximal effect (EC50) is greater than 10 µM. For `CC(=O)N1CCCC(c2nc(Nc3cccc(F)c3)cc(-c3cncc(N4CCOCC4)c3)n2)C1` (centres unmarked) the value was less than 1 µM; for `CC(=O)N1CCCC(c2nc(Nc3cccc(F)c3)cc(-c3ccncc3)n2)C1` (centres unmarked), 1 to 10 µM; for `CCC(=O)N1CCCC(c2nc(Nc3cccc(F)c3)cc(NC3CCCCC3)n2)C1` (centres unmarked), greater than 10 µM. For `CCC(=O)N1CCCC(c2nc(Nc3cccc(F)c3)cc(C3CCCC3)n2)C1` (centres unmarked) the value was greater than 10 µM. For `CC(=O)N1CCCC(c2nc(Nc3cncc(C)c3)cc(-c3cncnc3)n2)C1` (centres unmarked) the value was 1 to 10 µM; for `CC(=O)N1CCCC(c2nc(Nc3cccc(F)c3)cc(-c3cncc(N4CCN(C)CC4)c3)n2)C1` (centres unmarked), greater than 10 µM. Regarding `CCC(=O)N1CCCC(c2nc(Nc3cccc(F)c3)cc(-c3cnc(N)nc3)n2)C1` (centres unmarked), the EC50 is greater than 10 µM. Take `COc1cncc(-c2cc(Nc3cccc(F)c3)nc([C@@H]3CCCN(C(C)=O)C3)n2)c1`: the EC50 was less than 1 µM. The result for `COC(=O)N1CCOCC(c2nc(Nc3cccc(F)c3)cc(-c3cccnc3)n2)C1` (centres unmarked) reads 1 to 10 µM; that for `CC(=O)N1CCCC(c2nc(Nc3cccc(C)c3)cc(-c3ccnnc3)n2)C1` (centres unmarked), 1 to 10 µM.

As for `CC(=O)N1CCCC(c2nc(Nc3cccc(C)c3)cc(-c3cncnc3)n2)C1` (centres unmarked), the 50% effective concentration (EC50) lay in the range of 1 to 10 µM.

Regarding `CC(=O)N1CC(c2cc(Nc3cccc(F)c3)cc(-c3cccnc3)n2)CCC1C` (centres unmarked) [drawing 689], the concentration for a half-maximal effect (EC50) is greater than 10 µM. On to `CC(=O)N1CCCCC(c2nc(Nc3cccc(F)c3)cc(-c3cccnc3)n2)C1` (centres unmarked), for which the EC50 was less than 1 µM.

Turning to `CCC(=O)N1CCCC(c2nc(-c3cccnc3)cc(N(c3cccc(F)c3)C(C)C)n2)C1` (centres unmarked), the concentration giving a half-maximal response (EC50) is greater than 10 µM.

As to `CC(=O)N1CCCC(c2nc(Nc3ccnnc3)cc(-c3cccnc3)n2)C1` (centres unmarked), the EC50 was greater than 10 µM. With `CCC(=O)N1CCCC(c2nc(Nc3ccc(Cl)cc3)cc(-c3cccnc3)n2)C1` (centres unmarked), the EC50 was in the range of 1 to 10 µM.

For `CCC(=O)N1CCCC(c2nc(Nc3cccc(F)c3)cc(-c3cn(C)nc3C)n2)C1` (centres unmarked), the EC50 is greater than 10 µM. The result for `CCC(=O)N1CCCC(c2nc(Nc3cccc(F)c3)cc(-c3cccc(C#N)c3)n2)C1` (centres unmarked) reads 1 to 10 µM; that for `CCC(=O)N1CCCC(c2nc(Nc3ccc(OC)nc3)cc(-c3cccnc3)n2)C1` (centres unmarked), greater than 10 µM; that for `CC(=O)N1CCCC(c2nc(Nc3cccc(F)c3)cc(-c3cncc4cc[nH]c34)n2)C1` (centres unmarked), greater than 10 µM.

In the case of `CC(=O)NCCOCCOCCOc1cncc(-c2cc(Nc3cccc(F)c3)nc(C3CCCN(C(C)=O)C3)n2)c1` (centres unmarked), the concentration giving a half-maximal response (EC50) lay in the range of 1 to 10 µM. For `CC(=O)N1CCCC(c2nc(Nc3cccc(F)c3)cc(NC3CCOCC3)n2)C1` (centres unmarked) the value was greater than 10 µM. Regarding `CCCN1CCCC(c2nc(Nc3cccc(F)c3)cc(-c3cccnc3)n2)C1` (centres unmarked), the concentration for a half-maximal effect (EC50) was greater than 10 µM. The result for `COCCOCCOCC(=O)N1CCCC(c2nc(Nc3cccc(F)c3)cc(-c3cccnc3)n2)C1` (centres unmarked) reads greater than 10 µM.

Take `CC(=O)N1CCCC(c2nc(Nc3cccc(C)c3)cc(-c3c(C)noc3C)n2)C1` (centres unmarked): the half-maximal effective concentration (EC50) is 1 to 10 µM. For `CC(=O)N1C[C@H](c2nc(Nc3ccccc3)cc(-c3cncnc3)n2)CC[C@@H]1C` the value was less than 1 µM; for `CCC(=O)N1CCCC(c2nc(Nc3cccc(F)c3)cc(C3=CCCCC3)n2)C1` (centres unmarked), greater than 10 µM.
